Test results: the supplement of paper PMC10627819

Legend:
Conditions in all cases: main component drawn
B. subtilis 168 [1] = experiment: fitness (endpoint OD595 vs no drug) (fraction); higher = more growth
How it was run: (§1)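 Plates with 384 wells were inoculated at OD595 0.01 using 30 µl of TSB, LB Lennox or CY, or 55 µl for S. pneumoniae. Incubation was at 37 °C, with OD595 measured every 30 min for 14 h. Fitness is the stationary-phase transition optical density over the robust mean of no-drug control wells, after first-reading background subtraction; it is capped at 1.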

S. aureus Newman [2] = experiment: as above
How it was run: as §1

B. subtilis 168 [3] = experiment: Bliss interaction score (quartile over a dose matrix) (fitness difference); higher = more antagonism (negative = synergy)
How it was run: (§2)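 Fitness here means normalised growth, inferred for single drugs from the combination data. Growth was OD595 at entry into stationary phase, divided by the plate's robust no-drug mean and capped at 1. The Bliss score is observed minus expected fitness, with the expectation being the product, and its quartiles span technical, biological and donor/recipient replicates.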

S. aureus DSM 20231 = experiment: as above
How it was run: as §2

S. aureus Newman [4] = experiment: as above
How it was run: as §2

S. pneumoniae D39V = experiment: as above
How it was run: as §2
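For Bliss interaction score (quartile over a dose matrix) in this document: first quartile when negative (synergy) and third quartile when positive (antagonism).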

CC[C@H](C)[C@H](N)C1=N[C@H](C(=O)N[C@@H](CC(C)C)C(=O)N[C@H](CCC(=O)O)C(=O)N[C@H](C(=O)N[C@H]2CCCCNC(=O)[C@H](CC(N)=O)NC(=O)[C@@H](CC(=O)O)NC(=O)[C@H](Cc3cnc[nH]3)NC(=O)[C@@H](Cc3ccccc3)NC(=O)[C@H]([C@@H](C)CC)NC(=O)[C@@H](CCCN)NC2=O)[C@@H](C)CC)CS1 [Bacitracin] + CCC[C@@H]1C[C@@H](C(=O)N[C@@H]([C@H]2O[C@H](SC)[C@H](O)[C@@H](O)[C@H]2O)[C@H](C)Cl)N(C)C1 [Clindamycin]
fitness, B. subtilis 168 [1], one replicate
Conditions	first compound 37.5 µg/mL	first compound 75 µg/mL	first compound 150 µg/mL
partner 0.0039 µg/mL	0.995	≥ 1	≥ 1
partner 0.0078 µg/mL	0.878	0.891	0.845
partner 0.0156 µg/mL	0.831	0.861	0.871

fitness
Conditions	first compound 18.75 µg/mL	first compound 37.5 µg/mL	first compound 75 µg/mL	first compound 150 µg/mL
B. subtilis 168 [1], partner 0.0625 µg/mL	–	0.649	0.568	–
B. subtilis 168 [1], partner 0.125 µg/mL	–	0.42	0.364	0.108
B. subtilis 168 [1], partner 0.25 µg/mL	–	0.363	0.241	0.0433
S. aureus Newman [2], partner 0.0312 µg/mL	–	–	0.0388	–
S. aureus Newman [2], partner 0.0625 µg/mL	–	0.067	0.0139	–
S. aureus Newman [2], partner 0.125 µg/mL	0.0166	0.0173	0.0265	–

Conditions	Bliss interaction score
B. subtilis 168 [3]	-0.0851
S. aureus DSM 20231	0.0155
S. aureus Newman [4]	-0.052
S. pneumoniae D39V	-0.071

CC[C@H](C)[C@H](N)C1=N[C@H](C(=O)N[C@@H](CC(C)C)C(=O)N[C@H](CCC(=O)O)C(=O)N[C@H](C(=O)N[C@H]2CCCCNC(=O)[C@H](CC(N)=O)NC(=O)[C@@H](CC(=O)O)NC(=O)[C@H](Cc3cnc[nH]3)NC(=O)[C@@H](Cc3ccccc3)NC(=O)[C@H]([C@@H](C)CC)NC(=O)[C@@H](CCCN)NC2=O)[C@@H](C)CC)CS1 [Bacitracin] + CCN(CC)CCOC(=O)c1ccc(N)cc1 [Procaine]
fitness
Conditions	partner 85.5 µg/mL	partner 171 µg/mL	partner 342 µg/mL
B. subtilis 168 [1], first compound 37.5 µg/mL	0.88	0.939	0.874
B. subtilis 168 [1], first compound 75 µg/mL	0.899	0.879	0.871
B. subtilis 168 [1], first compound 150 µg/mL	0.753	0.752	0.619
S. aureus Newman [2], first compound 18.75 µg/mL	0.792	0.738	0.749
S. aureus Newman [2], first compound 75 µg/mL	0.0486	0.0139	0.0176

Conditions	Bliss interaction score
B. subtilis 168 [3]	0.116
S. aureus DSM 20231	0.0191
S. aureus Newman [4]	0.0965
S. pneumoniae D39V	-0.0511

CC[C@H](C)[C@H](N)C1=N[C@H](C(=O)N[C@@H](CC(C)C)C(=O)N[C@H](CCC(=O)O)C(=O)N[C@H](C(=O)N[C@H]2CCCCNC(=O)[C@H](CC(N)=O)NC(=O)[C@@H](CC(=O)O)NC(=O)[C@H](Cc3cnc[nH]3)NC(=O)[C@@H](Cc3ccccc3)NC(=O)[C@H]([C@@H](C)CC)NC(=O)[C@@H](CCCN)NC2=O)[C@@H](C)CC)CS1 [Bacitracin] + CN1C2=CC=CC=C2N=C3C1=CC=CC3=O [Pyocyanin]
fitness
Conditions	first compound 18.75 µg/mL	first compound 37.5 µg/mL	first compound 75 µg/mL	first compound 150 µg/mL
B. subtilis 168 [1], partner 1.25 µg/mL	–	0.9	0.931	0.8
B. subtilis 168 [1], partner 2.5 µg/mL	–	0.839	0.853	0.682
B. subtilis 168 [1], partner 5 µg/mL	–	0.614	0.594	0.419
S. aureus Newman [2], partner 1.25 µg/mL	0.574	0.208	0.04	–
S. aureus Newman [2], partner 2.5 µg/mL	0.496	0.18	0.0276	–
S. aureus Newman [2], partner 5 µg/mL	0.281	0.148	0.0716	–

Conditions	Bliss interaction score
B. subtilis 168 [3]	0.0566
S. aureus DSM 20231	0.0748
S. aureus Newman [4]	-0.0473
S. pneumoniae D39V	0.0487

CC[C@H](C)[C@H](N)C1=N[C@H](C(=O)N[C@@H](CC(C)C)C(=O)N[C@H](CCC(=O)O)C(=O)N[C@H](C(=O)N[C@H]2CCCCNC(=O)[C@H](CC(N)=O)NC(=O)[C@@H](CC(=O)O)NC(=O)[C@H](Cc3cnc[nH]3)NC(=O)[C@@H](Cc3ccccc3)NC(=O)[C@H]([C@@H](C)CC)NC(=O)[C@@H](CCCN)NC2=O)[C@@H](C)CC)CS1 [Bacitracin] + CN(C)c1cc(NC(=O)CNC(C)(C)C)c(O)c2c1C[C@H]1C[C@H]3[C@H](N(C)C)C(O)=C(C(N)=O)C(=O)[C@@]3(O)C(O)=C1C2=O [Tigecycline]
fitness
Conditions	partner 0.039 µg/mL	partner 0.078 µg/mL	partner 0.156 µg/mL
B. subtilis 168 [1], first compound 37.5 µg/mL	0.997	0.946	0.867
B. subtilis 168 [1], first compound 75 µg/mL	≥ 1	0.859	0.933
S. aureus Newman [2], first compound 18.75 µg/mL	0.705	0.707	0.724
S. aureus Newman [2], first compound 75 µg/mL	0.0511	0.058	0.0883

fitness, B. subtilis 168 [1], one replicate
Conditions	first compound 37.5 µg/mL	first compound 75 µg/mL	first compound 150 µg/mL
partner 0.125 µg/mL	≥ 1	≥ 1	≥ 1
partner 0.25 µg/mL	0.907	0.892	0.855
partner 0.5 µg/mL	0.915	0.947	0.914

Conditions	Bliss interaction score
B. subtilis 168 [3]	0.0848
S. aureus DSM 20231	0.0393
S. aureus Newman [4]	0.0592
S. pneumoniae D39V	0.0672

CC[C@H](C)[C@H](N)C1=N[C@H](C(=O)N[C@@H](CC(C)C)C(=O)N[C@H](CCC(=O)O)C(=O)N[C@H](C(=O)N[C@H]2CCCCNC(=O)[C@H](CC(N)=O)NC(=O)[C@@H](CC(=O)O)NC(=O)[C@H](Cc3cnc[nH]3)NC(=O)[C@@H](Cc3ccccc3)NC(=O)[C@H]([C@@H](C)CC)NC(=O)[C@@H](CCCN)NC2=O)[C@@H](C)CC)CS1 [Bacitracin] + CN(N=O)C(=O)N[C@@H](C=O)[C@@H](O)[C@H](O)[C@H](O)CO [Streptozotocin]
fitness
Conditions	partner 0.15 µg/mL	partner 0.3 µg/mL	partner 0.6 µg/mL
B. subtilis 168 [1], first compound 37.5 µg/mL	0.913	0.856	0.906
B. subtilis 168 [1], first compound 75 µg/mL	0.806	0.857	0.876
S. aureus Newman [2], first compound 18.75 µg/mL	0.59	0.526	0.245
S. aureus Newman [2], first compound 37.5 µg/mL	0.124	0.0706	0.0163
S. aureus Newman [2], first compound 75 µg/mL	0.0279	0.0183	0.0064

Conditions	Bliss interaction score
B. subtilis 168 [3]	0.0453
S. aureus DSM 20231	-0.0576
S. aureus Newman [4]	-0.104
S. pneumoniae D39V	-0.0625

CC[C@H](C)[C@H](N)C1=N[C@H](C(=O)N[C@@H](CC(C)C)C(=O)N[C@H](CCC(=O)O)C(=O)N[C@H](C(=O)N[C@H]2CCCCNC(=O)[C@H](CC(N)=O)NC(=O)[C@@H](CC(=O)O)NC(=O)[C@H](Cc3cnc[nH]3)NC(=O)[C@@H](Cc3ccccc3)NC(=O)[C@H]([C@@H](C)CC)NC(=O)[C@@H](CCCN)NC2=O)[C@@H](C)CC)CS1 [Bacitracin] + CN[C@@H]1[C@H](O)[C@H](NC)[C@H]2O[C@@]3(O)C(=O)C[C@@H](C)O[C@H]3O[C@@H]2[C@H]1O [Spectinomycin]
fitness
Conditions	partner 2 µg/mL	partner 4 µg/mL	partner 8 µg/mL	partner 16 µg/mL
B. subtilis 168 [1], first compound 37.5 µg/mL	0.903	0.933	0.863	–
B. subtilis 168 [1], first compound 75 µg/mL	0.889	0.911	0.829	–
S. aureus Newman [2], first compound 18.75 µg/mL	–	0.652	–	–
S. aureus Newman [2], first compound 75 µg/mL	–	0.0188	0.0181	0

fitness, S. aureus Newman [2], one replicate
Conditions	first compound 18.75 µg/mL	first compound 37.5 µg/mL	first compound 75 µg/mL
partner 32 µg/mL	0.0067	0.0186	0
partner 64 µg/mL	0.0327	0.0167	0.003

Conditions	Bliss interaction score
B. subtilis 168 [3]	0.0682
S. aureus DSM 20231	0.0546
S. aureus Newman [4]	-0.165
S. pneumoniae D39V	-0.186
